Where a name gives a salt, the structure may show the parent alone. Read-outs that look alike come from different tables or passages of the source.
Assays:
[1] = molecular target: T1, SARS-CoV-2 PLpro (nsp3 1564–1878) (Severe acute respiratory syndrome coronavirus 2, UniProt P0DTD1); assay: biochemical; set-up: FRET-quenched peptide (Pro3) cleavage by PLpro, 10 min pre-incubation, slope over 20 min, normalised to no-compound control; details: low concentration screen, read-out: % of control remaining
[2] = molecular target: T1, SARS-CoV-2 PLpro (nsp3 1564–1878); assay: biochemical; set-up: FRET-quenched peptide (Pro3) cleavage by PLpro, 10 min pre-incubation, slope over 20 min, normalised to no-compound control; details: high concentration screen, read-out: % of control remaining

Structure (SMILES): C=CCNC(N)=S [Allylthiourea]
- remaining activity at 1.25 µM ([1]; Well no.=5076): 106%
- remaining activity at 3.75 µM ([2]; Well no.=5076): 106%

Structure (SMILES): CN(C)CCc1c[nH]c2ccc(CS(=O)(=O)N3CCCC3)cc12 [Almotriptan (malate)]
- remaining activity at 1.25 µM ([1]; Well no.=6271): 106%
- remaining activity at 3.75 µM ([2]; Well no.=6271): 106%

Structure (SMILES): O=C1c2cccc(O)c2C(=O)c2c(O)cc(CO)cc21 [Aloe-emodine]
- remaining activity at 1.25 µM ([1]; Well no.=3156): 105%
- remaining activity at 3.75 µM ([2]; Well no.=3156): 102%

Structure (SMILES): Cn1c(=O)cc(N2CCC[C@@H](N)C2)n(Cc2ccccc2C#N)c1=O [Alogliptin (SYR-322)]
- remaining activity at 1.25 µM ([1]; Well no.=5179): 104%
- remaining activity at 3.75 µM ([2]; Well no.=5179): 97.5%

Structure (SMILES): O=C1c2c(O)cccc2C([C@@H]2O[C@H](CO)[C@@H](O)[C@H](O)[C@H]2O)c2cc(CO)cc(O)c21 (stereo partly drawn) [Aloin]
- remaining activity at 1.25 µM ([1]; Well no.=8338): 99.2%
- remaining activity at 3.75 µM ([2]; Well no.=8338): 97.8%

Structure (SMILES): CCCCc1c(-c2ccc(O)cc2)[nH]c2nccnc12 [Aloisine A, RP107]
- remaining activity at 1.25 µM ([1]; Well no.=2318): 97.4%
- remaining activity at 3.75 µM ([2]; Well no.=2318): 95.3%

Structure (SMILES): CCCCc1c(-c2ccc(OC)cc2)[nH]c2nccnc12 [Aloisine, RP106]
- remaining activity at 1.25 µM ([1]; Well no.=2320): 96.9%
- remaining activity at 3.75 µM ([2]; Well no.=2320): 94.7%

Structure (SMILES): C1=C2CCCN[C@H]2[C@@H]2C[C@H]1[C@H]1CCCCN1C2 [Aloperine]
- remaining activity at 1.25 µM ([1]; Well no.=5240): 94.5%
- remaining activity at 3.75 µM ([2]; Well no.=5240): 94%

Structure (SMILES): Cc1[nH]cnc1CN1CCc2c(c3ccccc3n2C)C1=O [Alosetron (Hydrochloride)]
- remaining activity at 1.25 µM ([1]; Well no.=8289): 105%
- remaining activity at 3.75 µM ([2]; Well no.=8289): 99.5%

Structure (SMILES): C[C@]12CC[C@@H]3c4ccc(O)cc4CC[C@H]3[C@@H]1CC[C@H]2O [Alpha-Estradiol]
- remaining activity at 1.25 µM ([1]; Well no.=6693): 98.9%
- remaining activity at 3.75 µM ([2]; Well no.=6693): 93.1%

Structure (SMILES): CCCN(CCC)C(=O)Cc1c(-c2ccc(Cl)cc2)nc2ccc(Cl)cn12 [Alpidem]
- remaining activity at 1.25 µM ([1]; Well no.=5821): 108%
- remaining activity at 3.75 µM ([2]; Well no.=5821): 106%

Structure (SMILES): C=CCc1ccccc1OCC(O)CNC(C)C (stereo not drawn) [Alprenolol (hydrochloride)]
- remaining activity at 1.25 µM ([1]; Well no.=6327): 102%
- remaining activity at 3.75 µM ([2]; Well no.=6327): 103%

Structure (SMILES): C=CCc1ccccc1OCC(O)CNC(C)C (stereo not drawn) [Alprenolol hydrochloride]
- remaining activity at 1.25 µM ([1]; Well no.=342): 95.5%
- remaining activity at 3.75 µM ([2]; Well no.=342): 97.7%

Structure (SMILES): O=C1Cc2c([nH]c3ccc([N+](=O)[O-])cc23)-c2ccccc2N1 [Alsterpaullone]
- remaining activity at 1.25 µM ([1]; Well no.=255): 104%
- remaining activity at 1.25 µM ([1]; Well no.=2314): 101%
- remaining activity at 3.75 µM ([2]; Well no.=255): 106%
- remaining activity at 3.75 µM ([2]; Well no.=2314): 105%

Structure (SMILES): C=CC[C@]1(O)CC[C@H]2[C@@H]3CCC4=CC(=O)CCC4=C3C=C[C@@]21C [Altrenogest]
- remaining activity at 1.25 µM ([1]; Well no.=5020): 94.3%
- remaining activity at 3.75 µM ([2]; Well no.=5020): 93.9%

Structure (SMILES): CN(C)c1nc(N(C)C)nc(N(C)C)n1 [Altretamine]
- remaining activity at 1.25 µM ([1]; Well no.=8): 96%
- remaining activity at 1.25 µM ([1]; Well no.=2081): 101%
- remaining activity at 3.75 µM ([2]; Well no.=8): 98.2%
- remaining activity at 3.75 µM ([2]; Well no.=2081): 101%

Structure (SMILES): Cc1c(-c2ccnn2C)cc(C(=O)NCc2ccc(S(C)(=O)=O)cn2)c(=O)n1-c1cccc(C(F)(F)F)c1 [Alvelestat (AZD9668)]
- remaining activity at 1.25 µM ([1]; Well no.=9174): 95.1%
- remaining activity at 3.75 µM ([2]; Well no.=9174): 83.8%

Structure (SMILES): CCN(CCCc1ccccc1)CCCc1ccccc1 [Alverine (citrate)]
- remaining activity at 1.25 µM ([1]; Well no.=8203): 106%
- remaining activity at 3.75 µM ([2]; Well no.=8203): 106%

Structure (SMILES): CCN(CCCc1ccccc1)CCCc1ccccc1 [Alverine Citrate]
- remaining activity at 1.25 µM ([1]; Well no.=5277): 91.4%
- remaining activity at 3.75 µM ([2]; Well no.=5277): 91.3%

Structure (SMILES): C[C@H]1CN(C[C@H](Cc2ccccc2)C(=O)NCC(=O)O)CC[C@@]1(C)c1cccc(O)c1 [Alvimopan (dihydrate)]
- remaining activity at 1.25 µM ([1]; Well no.=6559): 100%
- remaining activity at 3.75 µM ([2]; Well no.=6559): 101%

Structure (SMILES): C[C@H]1CN(C[C@H](Cc2ccccc2)C(=O)NCC(=O)O)CC[C@@]1(C)c1cccc(O)c1 [Alvimopan]
- remaining activity at 1.25 µM ([1]; Well no.=6051): 95.7%
- remaining activity at 3.75 µM ([2]; Well no.=6051): 96.9%

Structure (SMILES): CN1CC[C@H](c2c(O)cc(O)c3c(=O)cc(-c4ccccc4Cl)oc23)[C@H](O)C1 [Alvocidib]
- remaining activity at 1.25 µM ([1]; Well no.=2695): 98.7%
- remaining activity at 3.75 µM ([2]; Well no.=2695): 104%

Structure (SMILES): NC12CC3CC(CC(C3)C1)C2 [Amantadine hydrochloride]
- remaining activity at 1.25 µM ([1]; Well no.=9): 104%
- remaining activity at 3.75 µM ([2]; Well no.=9): 103%

Structure (SMILES): NC12CC3CC(CC(C3)C1)C2 [Amantadine.HCl]
- remaining activity at 1.25 µM ([1]; Well no.=1653): 97.9%
- remaining activity at 3.75 µM ([2]; Well no.=1653): 97.4%

Structure (SMILES): O=S(=O)(O)c1ccc2c(N=Nc3ccc(S(=O)(=O)O)c4ccccc34)c(O)c(S(=O)(=O)O)cc2c1 [Amaranth]
- remaining activity at 1.25 µM ([1]; Well no.=8462): 98.1%
- remaining activity at 3.75 µM ([2]; Well no.=8462): 97.5%

Structure (SMILES): COC(c1ccccc1)(c1ccccc1)[C@H](Oc1nc(C)cc(C)n1)C(=O)O [Ambrisentan]
- remaining activity at 1.25 µM ([1]; Well no.=5270): 94.8%
- remaining activity at 1.25 µM ([1]; Well no.=6365): 102%
- remaining activity at 3.75 µM ([2]; Well no.=5270): 92.5%
- remaining activity at 3.75 µM ([2]; Well no.=6365): 98.8%

Structure (SMILES): Nc1c(Br)cc(Br)cc1CN[C@H]1CC[C@H](O)CC1 [Ambroxol HCl]
- remaining activity at 1.25 µM ([1]; Well no.=5311): 99.4%
- remaining activity at 3.75 µM ([2]; Well no.=5311): 97.1%

Structure (SMILES): Nc1c(Br)cc(Br)cc1CN[C@H]1CC[C@H](O)CC1 [Ambroxol]
- remaining activity at 1.25 µM ([1]; Well no.=1614): 102%
- remaining activity at 1.25 µM ([1]; Well no.=3892): 98.1%
- remaining activity at 3.75 µM ([2]; Well no.=1614): 101%
- remaining activity at 3.75 µM ([2]; Well no.=3892): 97.9%

Structure (SMILES): COc1cc(N)cn[n+]1-c1ccccc1 [Amezinium (methylsulfate)]
- remaining activity at 1.25 µM ([1]; Well no.=6567): 106%
- remaining activity at 3.75 µM ([2]; Well no.=6567): 104%

Structure (SMILES): CCn1cc(C(=O)O)c(=O)c2ccc(Cc3ccccc3)nc21 [Amfonelic acid]
- remaining activity at 1.25 µM ([1]; Well no.=446): 98.4%
- remaining activity at 3.75 µM ([2]; Well no.=446): 98.5%

Structure (SMILES): NCCCNCCSP(=O)(O)O [Amifostine]
- remaining activity at 1.25 µM ([1]; Well no.=115): 103%
- remaining activity at 1.25 µM ([1]; Well no.=2115): 99.3%
- remaining activity at 3.75 µM ([2]; Well no.=115): 104%
- remaining activity at 3.75 µM ([2]; Well no.=2115): 102%

Structure (SMILES): NCC[C@H](O)C(=O)N[C@@H]1C[C@H](N)[C@@H](O[C@H]2O[C@H](CN)[C@@H](O)[C@H](O)[C@H]2O)[C@H](O)[C@H]1O[C@H]1O[C@H](CO)[C@@H](O)[C@H](N)[C@H]1O [Amikacin hydrate]
- remaining activity at 1.25 µM ([1]; Well no.=5355): 97.3%
- remaining activity at 3.75 µM ([2]; Well no.=5355): 101%

Structure (SMILES): NCC[C@H](O)C(=O)N[C@@H]1C[C@H](N)[C@@H](O[C@H]2O[C@H](CN)[C@@H](O)[C@H](O)[C@H]2O)[C@H](O)[C@H]1O[C@H]1O[C@H](CO)[C@@H](O)[C@H](N)[C@H]1O [Amikacin sulfate]
- remaining activity at 1.25 µM ([1]; Well no.=5313): 107%
- remaining activity at 3.75 µM ([2]; Well no.=5313): 99.9%

Structure (SMILES): N=C(N)NC(=O)c1nc(Cl)c(N)nc1N [Amiloride HCl dihydrate]
- remaining activity at 1.25 µM ([1]; Well no.=5290): 101%
- remaining activity at 3.75 µM ([2]; Well no.=5290): 100%

Reference: article PMC8286840, “Identifying SARS-CoV-2 antiviral compounds by screening for small molecule inhibitors of Nsp3 papain-like protease” (Biochemical Journal, 2021)
